Data reported in patent publication US3933793A, “Therapeutically active 2-aminoalkylthio-3H-1.5-benzodiazepines and process for preparing them” (Recordati S.A. Chemical and Pharmaceutical Company, priority 1971, dated 1976).
Values after ≈ are worked out from the molar mass of the structure shown. Where a name gives a salt, the structure may show the parent alone.

Assays:
Escherichia coli 100 = assay: Antibacterial activity, minimum inhibitory concentration; details: Escherichia coli, 100, 18 h, read-out: minimum inhibitory concentration, B. coli
Protocol: (§1) The antibacterial activity of some of the 3H-1,5-benzodiazepines having the general formula I was tested on the following microorganisms:
(§2) Escherichia coli 100, Bacillus subtilis ATCC 9466, Micrococcus pyogenes SG-511, grown in Difco nutritive gelatin; Streptococcus pyogenes A 88 grown in Difco "Brain heart infusion agar" gelatin with 5 percent difibrinated Guinea pig blood.
(§3) The results were read after 18 hours incubation at 35°-37°C.

[1] = system: Streptococcus pyogenes A 88; assay: as above; details: A88, 18 h, read-out: minimum inhibitory concentration, S. pyogenes
Protocol: as §1, §2, §3

[2] = system: influenza A virus (PR8 strain); type: in vivo; details: 0.5 MTD in 10 ml buffered saline with virus, 1 hour at 37°C
[3] = system: Bacillus subtilis ATCC 9466; assay: Antibacterial activity, minimum inhibitory concentration; details: ATCC9466, 18 h, read-out: minimum inhibitory concentration, B. subtilis
Protocol: as §1, §2, §3

[4] = system: Micrococcus pyogenes SG-511; assay: as above; details: Staphylococcus aureus, SG511, 18 h, read-out: minimum inhibitory concentration, M. pyogenes
Protocol: as §1, §2, §3

C[N+]1(CCCSC2=Nc3ccccc3N=C(c3ccc(Sc4ccccc4)cc3)C2)CCCC1 [Compound 38, 2,gamma,N-pyrrolidinopropylthio-4,p-phenylthiophenyl-3H-1,5-benzodiazepine iodomethylate]
MIC (Escherichia coli 100): 160 µg/mL
MIC [1]: 10 µg/mL
APR8: difference between logarithms of EID95 of controls and of treated eggs [2]: 3
MIC [3]: 10 µg/mL
MIC [4]: 2.5 µg/mL

CCN(CC)CCCSC1=Nc2ccccc2N=C(c2ccc(Sc3ccccc3)cc2)C1 [Compound 39, 2,gamma,N-diethylaminopropylthio-4,p-phenylthiophenyl-3H-1,5-benzodiazepinecitrate]
APR8: difference between logarithms of EID95 of controls and of treated eggs [2]: 3
MIC [3]: 10 µg/mL (≈ 21.1 µM)

CC[N+](C)(CC)CCCSC1=Nc2ccccc2N=C(c2ccc(Sc3ccccc3)cc2)C1 [Compound 40, 2,gamma,N-diethylaminopropylthio-4,p-phenylthiophenyl-3H-1,5-benzodiazepineiodomethylate]
MIC (Escherichia coli 100): 5 µg/mL
MIC [1]: 5 µg/mL
APR8: difference between logarithms of EID95 of controls and of treated eggs [2]: 1
MIC [3]: 5 µg/mL

CN(C)CCCSC1=Nc2ccccc2N=C(c2ccc(Sc3ccccc3)cc2)C1 [Compound 41, 2,gamma,N-dimethylaminopropylthio-4,p-phenylthiophenyl-3H-1,5-benzodiazepine.HCl]
MIC [1]: 1.25 µg/mL
APR8: difference between logarithms of EID95 of controls and of treated eggs [2]: > 3
MIC [3]: 10 µg/mL

C[N+](C)(C)CCCSC1=Nc2ccccc2N=C(c2ccc(Sc3ccccc3)cc2)C1 [Compound 42, 2,gamma,N-dimethylaminopropylthio-4,p-phenylthiophenyl-3H-1,5-benzodiazepine iodomethylate]
MIC (Escherichia coli 100): 80 µg/mL
APR8: difference between logarithms of EID95 of controls and of treated eggs [2]: 3
MIC [3]: 40 µg/mL

C[N+]1(CCSC2=Nc3ccccc3N=C(c3ccc(Sc4ccccc4)cc3)C2)CCCC1 [Compound 44, 2, beta,N-pyrrolidinoethylthio-4,p-phenylthiophenyl-3H-1,5-benzodiazepine iodomethylate]
MIC (Escherichia coli 100): 160 µg/mL
APR8: difference between logarithms of EID95 of controls and of treated eggs [2]: 2
MIC [3]: 40 µg/mL

C[N+](C)(C)CCSC1=Nc2ccccc2N=C(c2ccc(Sc3ccccc3)cc2)C1 [Compound 46, 2,beta,N-dimethylaminoethylthio-4,p-phenylthiophenyl-3H-1,5-benzodiazepine iodomethylate]
MIC (Escherichia coli 100): 160 µg/mL
APR8: difference between logarithms of EID95 of controls and of treated eggs [2]: 2
MIC [3]: 20 µg/mL

C[N+]1(CCSC2=Nc3ccccc3N=C(c3ccc(Sc4ccccc4)cc3)C2)CCCCC1 [Compound 48, 2,beta,N-piperidinoethylthio-4,p-phenylthiophenyl-3H-1,5-benzodiazepine iodomethylate]
MIC (Escherichia coli 100): 80 µg/mL
APR8: difference between logarithms of EID95 of controls and of treated eggs [2]: > 4
MIC [3]: 10 µg/mL

C[N+]1(CCSC2=Nc3ccccc3N=C(c3ccc(Sc4ccccc4)cc3)C2)CCOCC1 [Compound 50, 2,beta,N-morpholinoethylthio-4,p-phenylthiophenyl-3H-1,5-benzodiazepine iodomethylate]
MIC (Escherichia coli 100): 160 µg/mL
APR8: difference between logarithms of EID95 of controls and of treated eggs [2]: 2
MIC [3]: 10 µg/mL

CCN(CC)CCSC1=Nc2ccccc2N=C(c2ccc(C)cc2)C1 [Compound 66]
MIC [1]: 80 µg/mL (≈ 219 µM)
APR8: difference between logarithms of EID95 of controls and of treated eggs [2]: 1
MIC [3]: 40 µg/mL (≈ 109 µM)
